Assay results published in publication PMC7311426, “An amphipathic peptide with antibiotic activity against multidrug-resistant Gram-negative bacteria” (Nature Communications, 2020).
Values after ≈ are worked out from the molar mass of the structure shown. Like-named read-outs stand apart in the source and are kept apart here.

Tested on: P. aeruginosa
Assay: microbe, parasite or virus in culture
Conditions: Pseudomonas aeruginosa
Outline: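 MICs were scored by eye after 18-20 h static incubation at 37 °C, with bacteria at 5 × 10^5 CFU mL^−1 in MHB. Peptides were serially diluted 2-fold over 12 points, top 128 or 64 μg mL^−1. CAMHB (CLSI) and 1% agarose-MHB variants were also run, at least six replicates.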

## C[C@@H](O)[C@H]1C(=O)N2C(C(=O)O)=C(S[C@@H]3CN[C@H](C(=O)N(C)C)C3)[C@H](C)[C@H]12 [Meropenem, meropenem, reference compound]
ATCC27853, read-out: MIC, broth microdilution, P. aeruginosa ATCC 27853 spontaneous mutant, AA139 selection 4X, plate 1, colony 6, drug-free passage 1
  MIC: 0.5 µg/mL (≈ 1.3 µM)
ATCC27853, read-out: MIC, broth microdilution, P. aeruginosa ATCC 27853 spontaneous mutant, AA139 selection 4X, plate 1, colony 6, drug-free passage 5
  MIC: 0.5 µg/mL (≈ 1.3 µM)
ATCC27853, read-out: MIC, broth microdilution, P. aeruginosa ATCC 27853 spontaneous mutant, AA139 selection 4X, plate 2, colony 1, drug-free passage 1
  MIC: 0.25 µg/mL (≈ 0.652 µM)
ATCC27853, read-out: MIC, broth microdilution, P. aeruginosa ATCC 27853 spontaneous mutant, AA139 selection 4X, plate 2, colony 1, drug-free passage 5
  MIC: 0.25 µg/mL (≈ 0.652 µM)
ATCC27853, read-out: MIC, broth microdilution, P. aeruginosa ATCC 27853 spontaneous mutant, AA139 selection 4X, plate 2, colony 2, drug-free passage 1
  MIC: 0.5 µg/mL (≈ 1.3 µM)
ATCC27853, read-out: MIC, broth microdilution, P. aeruginosa ATCC 27853 spontaneous mutant, AA139 selection 4X, plate 2, colony 2, drug-free passage 5
  MIC: 0.25 µg/mL (≈ 0.652 µM)
ATCC27853, read-out: MIC, broth microdilution, P. aeruginosa ATCC 27853 spontaneous mutant, AA139 selection 4X, plate 2, colony 3, drug-free passage 1
  MIC: 0.5 µg/mL (≈ 1.3 µM)
ATCC27853, read-out: MIC, broth microdilution, P. aeruginosa ATCC 27853 spontaneous mutant, AA139 selection 4X, plate 2, colony 3, drug-free passage 5
  MIC: 0.25 µg/mL (≈ 0.652 µM)
ATCC27853, read-out: MIC, broth microdilution, P. aeruginosa ATCC 27853 spontaneous mutant, AA139 selection 4X, plate 2, colony 4, drug-free passage 1
  MIC: 0.5 µg/mL (≈ 1.3 µM)
ATCC27853, read-out: MIC, broth microdilution, P. aeruginosa ATCC 27853 spontaneous mutant, AA139 selection 4X, plate 2, colony 4, drug-free passage 5
  MIC: 0.25 µg/mL (≈ 0.652 µM)
ATCC27853, read-out: MIC, broth microdilution, P. aeruginosa ATCC 27853 spontaneous mutant, AA139 selection 8X, plate 1, colony 1, drug-free passage 1
  MIC: 0.5 µg/mL (≈ 1.3 µM)
ATCC27853, read-out: MIC, broth microdilution, P. aeruginosa ATCC 27853 spontaneous mutant, AA139 selection 8X, plate 1, colony 1, drug-free passage 5
  MIC: 0.5 µg/mL (≈ 1.3 µM)
ATCC27853, read-out: MIC, broth microdilution, P. aeruginosa ATCC 27853 spontaneous mutant, AA139 selection 8X, plate 1, colony 2, drug-free passage 1
  MIC: 0.25 µg/mL (≈ 0.652 µM)
ATCC27853, read-out: MIC, broth microdilution, P. aeruginosa ATCC 27853 spontaneous mutant, AA139 selection 8X, plate 1, colony 2, drug-free passage 5
  MIC: 0.5 µg/mL (≈ 1.3 µM)
ATCC27853, read-out: MIC, broth microdilution, P. aeruginosa ATCC 27853 spontaneous mutant, AA139 selection 8X, plate 1, colony 3, drug-free passage 1
  MIC: 0.25 µg/mL (≈ 0.652 µM)
ATCC27853, read-out: MIC, broth microdilution, P. aeruginosa ATCC 27853 spontaneous mutant, AA139 selection 8X, plate 1, colony 3, drug-free passage 5
  MIC: 0.25 µg/mL (≈ 0.652 µM)
ATCC27853, read-out: MIC, broth microdilution, P. aeruginosa ATCC 27853 spontaneous mutant, AA139 selection 8X, plate 1, colony 4, drug-free passage 1
  MIC: 0.5 µg/mL (≈ 1.3 µM)
ATCC27853, read-out: MIC, broth microdilution, P. aeruginosa ATCC 27853 spontaneous mutant, AA139 selection 8X, plate 1, colony 4, drug-free passage 5
  MIC: 0.5 µg/mL (≈ 1.3 µM)
ATCC27853, read-out: MIC, broth microdilution, P. aeruginosa ATCC 27853 spontaneous mutant, AA139 selection 8X, plate 1, colony 5, drug-free passage 1
  MIC: 0.5 µg/mL (≈ 1.3 µM)
ATCC27853, read-out: MIC, broth microdilution, P. aeruginosa ATCC 27853 spontaneous mutant, AA139 selection 8X, plate 1, colony 5, drug-free passage 5
  MIC: 0.25 µg/mL (≈ 0.652 µM)
read-out: BMD MIC, P. aeruginosa FADDI-070, MDR, PmxR, MHB/CAMHB, mode of 6 replicates
  MIC: 1 µg/mL (≈ 2.61 µM)
read-out: MIC, broth microdilution, P. aeruginosa UNT 138-1 spontaneous mutant, AA139 selection 4X, plate 1, colony 1, drug-free passage 1
  MIC: 0.12 µg/mL (≈ 0.313 µM)
read-out: MIC, broth microdilution, P. aeruginosa UNT 138-1 spontaneous mutant, AA139 selection 4X, plate 1, colony 1, drug-free passage 5
  MIC: 0.12 µg/mL (≈ 0.313 µM)
read-out: MIC, broth microdilution, P. aeruginosa UNT 138-1 spontaneous mutant, AA139 selection 4X, plate 1, colony 2, drug-free passage 1
  MIC: 0.12 µg/mL (≈ 0.313 µM)
read-out: MIC, broth microdilution, P. aeruginosa UNT 138-1 spontaneous mutant, AA139 selection 4X, plate 1, colony 2, drug-free passage 5
  MIC: 0.25 µg/mL (≈ 0.652 µM)
read-out: MIC, broth microdilution, P. aeruginosa UNT 138-1 spontaneous mutant, AA139 selection 4X, plate 1, colony 3, drug-free passage 1
  MIC: 0.06 µg/mL (≈ 0.156 µM)
read-out: MIC, broth microdilution, P. aeruginosa UNT 138-1 spontaneous mutant, AA139 selection 4X, plate 1, colony 3, drug-free passage 5
  MIC: 0.12 µg/mL (≈ 0.313 µM)
read-out: MIC, broth microdilution, P. aeruginosa UNT 138-1 spontaneous mutant, AA139 selection 4X, plate 1, colony 4, drug-free passage 1
  MIC: 0.06 µg/mL (≈ 0.156 µM)
read-out: MIC, broth microdilution, P. aeruginosa UNT 138-1 spontaneous mutant, AA139 selection 4X, plate 1, colony 4, drug-free passage 5
  MIC: 0.12 µg/mL (≈ 0.313 µM)
read-out: MIC, broth microdilution, P. aeruginosa UNT 138-1 spontaneous mutant, AA139 selection 4X, plate 1, colony 5, drug-free passage 1
  MIC: 0.12 µg/mL (≈ 0.313 µM)
read-out: MIC, broth microdilution, P. aeruginosa UNT 138-1 spontaneous mutant, AA139 selection 4X, plate 1, colony 5, drug-free passage 5
  MIC: 0.12 µg/mL (≈ 0.313 µM)
read-out: MIC, broth microdilution, P. aeruginosa UNT 138-1 spontaneous mutant, AA139 selection 4X, plate 1, colony 6, drug-free passage 1
  MIC: 0.06 µg/mL (≈ 0.156 µM)
read-out: MIC, broth microdilution, P. aeruginosa UNT 138-1 spontaneous mutant, AA139 selection 4X, plate 1, colony 6, drug-free passage 5
  MIC: 0.25 µg/mL (≈ 0.652 µM)
read-out: MIC, broth microdilution, P. aeruginosa UNT 138-1 spontaneous mutant, AA139 selection 4X, plate 1, colony 7, drug-free passage 1
  MIC: 0.06 µg/mL (≈ 0.156 µM)
read-out: MIC, broth microdilution, P. aeruginosa UNT 138-1 spontaneous mutant, AA139 selection 4X, plate 1, colony 7, drug-free passage 5
  MIC: 0.12 µg/mL (≈ 0.313 µM)
read-out: MIC, broth microdilution, P. aeruginosa UNT 138-1 spontaneous mutant, AA139 selection 4X, plate 2, colony 1, drug-free passage 1
  MIC: 0.06 µg/mL (≈ 0.156 µM)
read-out: MIC, broth microdilution, P. aeruginosa UNT 138-1 spontaneous mutant, AA139 selection 4X, plate 2, colony 1, drug-free passage 5
  MIC: 0.06 µg/mL (≈ 0.156 µM)
read-out: MIC, broth microdilution, P. aeruginosa UNT 138-1 spontaneous mutant, AA139 selection 4X, plate 2, colony 2, drug-free passage 1
  MIC: 0.25 µg/mL (≈ 0.652 µM)
read-out: MIC, broth microdilution, P. aeruginosa UNT 138-1 spontaneous mutant, AA139 selection 4X, plate 2, colony 2, drug-free passage 5
  MIC: 0.12 µg/mL (≈ 0.313 µM)
read-out: MIC, broth microdilution, P. aeruginosa UNT 138-1 spontaneous mutant, AA139 selection 4X, plate 2, colony 3, drug-free passage 1
  MIC: 0.12 µg/mL (≈ 0.313 µM)
read-out: MIC, broth microdilution, P. aeruginosa UNT 138-1 spontaneous mutant, AA139 selection 4X, plate 2, colony 3, drug-free passage 5
  MIC: 0.12 µg/mL (≈ 0.313 µM)
read-out: MIC, broth microdilution, P. aeruginosa UNT 138-1 spontaneous mutant, AA139 selection 4X, plate 2, colony 4, drug-free passage 1
  MIC: 0.12 µg/mL (≈ 0.313 µM)
read-out: MIC, broth microdilution, P. aeruginosa UNT 138-1 spontaneous mutant, AA139 selection 4X, plate 2, colony 4, drug-free passage 5
  MIC: 0.12 µg/mL (≈ 0.313 µM)
read-out: MIC, broth microdilution, P. aeruginosa UNT 138-1 spontaneous mutant, AA139 selection 4X, plate 2, colony 5, drug-free passage 1
  MIC: 0.5 µg/mL (≈ 1.3 µM)
read-out: MIC, broth microdilution, P. aeruginosa UNT 138-1 spontaneous mutant, AA139 selection 4X, plate 2, colony 5, drug-free passage 5
  MIC: 0.12 µg/mL (≈ 0.313 µM)
read-out: MIC, broth microdilution, P. aeruginosa UNT 138-1 spontaneous mutant, AA139 selection 4X, plate 2, colony 6, drug-free passage 1
  MIC: 0.5 µg/mL (≈ 1.3 µM)
read-out: MIC, broth microdilution, P. aeruginosa UNT 138-1 spontaneous mutant, AA139 selection 4X, plate 2, colony 6, drug-free passage 5
  MIC: 0.12 µg/mL (≈ 0.313 µM)
read-out: MIC, broth microdilution, P. aeruginosa UNT 138-1 spontaneous mutant, AA139 selection 4X, plate 2, colony 7, drug-free passage 1
  MIC: 0.06 µg/mL (≈ 0.156 µM)
read-out: MIC, broth microdilution, P. aeruginosa UNT 138-1 spontaneous mutant, AA139 selection 4X, plate 2, colony 7, drug-free passage 5
  MIC: 0.12 µg/mL (≈ 0.313 µM)
read-out: MIC, broth microdilution, P. aeruginosa UNT 138-1 spontaneous mutant, AA139 selection 8X, plate 1, colony 1, drug-free passage 1
  MIC: 0.06 µg/mL (≈ 0.156 µM)
read-out: MIC, broth microdilution, P. aeruginosa UNT 138-1 spontaneous mutant, AA139 selection 8X, plate 1, colony 1, drug-free passage 5
  MIC: 0.06 µg/mL (≈ 0.156 µM)
read-out: MIC, broth microdilution, P. aeruginosa UNT 138-1 spontaneous mutant, AA139 selection 8X, plate 1, colony 2, drug-free passage 1
  MIC: 0.06 µg/mL (≈ 0.156 µM)
read-out: MIC, broth microdilution, P. aeruginosa UNT 138-1 spontaneous mutant, AA139 selection 8X, plate 1, colony 2, drug-free passage 5
  MIC: 0.12 µg/mL (≈ 0.313 µM)
read-out: MIC, broth microdilution, P. aeruginosa UNT 138-1 spontaneous mutant, AA139 selection 8X, plate 1, colony 3, drug-free passage 1
  MIC: 0.12 µg/mL (≈ 0.313 µM)
read-out: MIC, broth microdilution, P. aeruginosa UNT 138-1 spontaneous mutant, AA139 selection 8X, plate 1, colony 3, drug-free passage 5
  MIC: 0.12 µg/mL (≈ 0.313 µM)
read-out: MIC, broth microdilution, P. aeruginosa UNT 138-1 spontaneous mutant, AA139 selection 8X, plate 1, colony 4, drug-free passage 1
  MIC: 0.12 µg/mL (≈ 0.313 µM)
read-out: MIC, broth microdilution, P. aeruginosa UNT 138-1 spontaneous mutant, AA139 selection 8X, plate 1, colony 4, drug-free passage 5
  MIC: 0.12 µg/mL (≈ 0.313 µM)
read-out: MIC, broth microdilution, P. aeruginosa UNT 138-1 spontaneous mutant, AA139 selection 8X, plate 1, colony 5, drug-free passage 1
  MIC: 0.06 µg/mL (≈ 0.156 µM)
read-out: MIC, broth microdilution, P. aeruginosa UNT 138-1 spontaneous mutant, AA139 selection 8X, plate 1, colony 5, drug-free passage 5
  MIC: 0.06 µg/mL (≈ 0.156 µM)
read-out: MIC, broth microdilution, P. aeruginosa UNT 138-1 spontaneous mutant, AA139 selection 8X, plate 2, colony 1, drug-free passage 1
  MIC: 0.06 µg/mL (≈ 0.156 µM)
read-out: MIC, broth microdilution, P. aeruginosa UNT 138-1 spontaneous mutant, AA139 selection 8X, plate 2, colony 1, drug-free passage 5
  MIC: 0.12 µg/mL (≈ 0.313 µM)
